{"source": "PubChem BioAssay AID200", "about": "(DTP/NCI, 2004)", "system": "B6C3F1 mice, B16 melanoma ip, median survival T/C", "assay": "NCI In Vivo Anticancer Drug Screen. Data for tumor model B16 Melanoma (intraperitoneal) in B6C3F1 mice", "settings": "endpoint: median survival time, higher = longer survival", "in_short": "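Antitumor effect was judged in mice with transplanted tumors by dividing the treated group's survival measure by that of vehicle controls.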", "key": {"[1]": {"settings": "dose: 12.5 mg/kg/injection, schedule: Q01DX009 (ip), vehicle: saline"}, "[2]": {"settings": "dose: 25.0 mg/kg/injection, schedule: Q01DX009 (ip), vehicle: saline"}, "[3]": {"settings": "dose: 50.0 mg/kg/injection, schedule: Q01DX009 (ip), vehicle: saline"}, "[4]": {"settings": "dose: 100.0 mg/kg/injection, schedule: Q01DX009 (ip), vehicle: saline"}, "[5]": {"settings": "dose: 50.0 mg/kg/injection, schedule: Q01DX009 (ip), vehicle: saline with Tween-80"}, "[6]": {"settings": "dose: 100.0 mg/kg/injection, schedule: Q01DX009 (ip), vehicle: saline with Tween-80"}}, "note": "Values joined by “and” are separate entries in the source; they are usually repeats but may differ in a detail not shown here. Identical values can stand only once. Toxic doses and inconclusive results are not listed. *1 amine or outer side, *2 acyl side, *3 side chain or, on linkers, in order; H or OH if unused. Where a SMILES comes first, the peptide text is derived from it. Bridges are numbered along the chain shown (N, C = ends). Roman numbers before positions name the chains, in order. [ ]: non-standard residue; d: D form. The star is where a group is joined. ξ: configuration not given here. Quinaldoyl(3-OH,6-OMe) = COc1ccc2nc(C(=O)*)c(O)cc2c1; X6 = CCC(=O)OC1CC=NN([*:1])C1C(=O)[*:2]; X7 = CC(=O)OC1CC=NN([*:1])C1C(=O)[*:2]; ξNMeVal(3-OH) = CNC(C(=O)O)C(C)(C)O; Sar = CNCC(=O)O"}
{"smiles": "CC(=O)OCC1OC(n2cc(CBr)nn2)C(OC(C)=O)C(OC(C)=O)C1OC(C)=O", "note": "(stereo not drawn)", "values": [{"measurement": "T/C", "setting": "dose: 3.12 mg/kg/injection, schedule: Q01DX009 (ip), vehicle: saline", "result": "100 % of control"}, {"measurement": "T/C", "setting": "dose: 6.25 mg/kg/injection, schedule: Q01DX009 (ip), vehicle: saline", "result": "103 % of control"}, {"measurement": "T/C", "setting": "[1]", "result": "102 % of control"}, {"measurement": "T/C", "setting": "[2]", "result": "113 % of control and 114 % of control"}, {"measurement": "T/C", "setting": "[3]", "result": "117 % of control and 119 % of control"}, {"measurement": "T/C", "setting": "[4]", "result": "105 % of control"}]}
{"smiles": "CCC(=O)OC1CC=NN2C(=O)C(NC(=O)c3nc4ccc(OC)cc4cc3O)COC(=O)C(C(C)(C)O)N(C)C(=O)CN(C)C(=O)CNC(=O)C3C(OC(C)=O)CC=NN3C(=O)C(NC(=O)c3nc4ccc(OC)cc4cc3O)COC(=O)C(C(C)(C)O)N(C)C(=O)CN(C)C(=O)CNC(=O)C12", "note": "(stereo not drawn) (I: {Quinaldoyl(3-OH,6-OMe)}-S[X6]G[Sar][ξNMeVal(3-OH)] / II: {Quinaldoyl(3-OH,6-OMe)}-S[X7]G[Sar][ξNMeVal(3-OH)]; ester I:1-II:C, I:C-II:1; configuration not given here)", "values": [{"measurement": "T/C", "setting": "dose: 4.0 micrograms/kg/injection, schedule: Q01DX009 (ip), vehicle: saline", "result": "98 % of control"}, {"measurement": "T/C", "setting": "dose: 8.0 micrograms/kg/injection, schedule: Q01DX009 (ip), vehicle: saline", "result": "105 % of control"}, {"measurement": "T/C", "setting": "dose: 16.0 micrograms/kg/injection, schedule: Q01DX009 (ip), vehicle: saline", "result": "111 % of control"}]}
{"smiles": "O=C(CCl)NC(Cc1ccc(O)cc1)C(=O)O", "note": "(stereo not drawn)", "values": [{"measurement": "T/C", "setting": "[5]", "result": "93 % of control"}, {"measurement": "T/C", "setting": "[6]", "result": "87 % of control"}]}
{"smiles": "CCC[CH2][Sn]1([CH2]CCC)[O]C2C(CO)OC(n3ccc(N)nc3=O)C2[O]1", "note": "(stereo not drawn)", "values": [{"measurement": "T/C", "setting": "dose: 0.05 mg/kg/injection, schedule: Q01DX009 (ip), vehicle: Klucel (hydroxypropylcellulose) (HPC)", "result": "94 % of control"}, {"measurement": "T/C", "setting": "dose: 0.1 mg/kg/injection, schedule: Q01DX009 (ip), vehicle: Klucel (hydroxypropylcellulose) (HPC)", "result": "90 % of control"}, {"measurement": "T/C", "setting": "dose: 0.2 mg/kg/injection, schedule: Q01DX009 (ip), vehicle: Klucel (hydroxypropylcellulose) (HPC)", "result": "101 % of control"}, {"measurement": "T/C", "setting": "dose: 0.4 mg/kg/injection, schedule: Q01DX009 (ip), vehicle: Klucel (hydroxypropylcellulose) (HPC)", "result": "95 % of control"}]}
{"smiles": "COC(C(=O)C(O)C(C)O)C1CC2C=C3C=C(OC4CC(OC5CC(O)C(OC)C(C)O5)C(OC(C)=O)C(C)O4)C(C)C(=O)C3=C(O)C2=C(O)C1OC1CC(OC2CC(OC3CC(C)(O)C(OC(=O)C(C)C)C(C)O3)C(O)C(C)O2)C(O)C(C)O1", "note": "(stereo not drawn)", "values": [{"measurement": "T/C", "setting": "dose: 62.5 micrograms/kg/injection, schedule: Q01DX009 (ip), vehicle: saline", "result": "155 % of control"}]}
{"smiles": "CC(NC(=O)c1ccccc1)C(=O)O", "note": "(stereo not drawn)", "values": [{"measurement": "T/C", "setting": "dose: 40.0 mg/kg/injection, schedule: Q01DX009 (ip), vehicle: saline with Tween-80", "result": "97 % of control"}, {"measurement": "T/C", "setting": "dose: 80.0 mg/kg/injection, schedule: Q01DX009 (ip), vehicle: saline with Tween-80", "result": "90 % of control"}]}
{"smiles": "CCOC(=O)C(C)(C)Oc1ccc(Cl)cc1", "values": [{"measurement": "T/C", "setting": "dose: 12.5 mg/kg/injection, schedule: Q01DX009 (ip), vehicle: saline with Tween-80", "result": "93 % of control and 105 % of control"}, {"measurement": "T/C", "setting": "dose: 25.0 mg/kg/injection, schedule: Q01DX009 (ip), vehicle: saline with Tween-80", "result": "93 % of control and 102 % of control"}, {"measurement": "T/C", "setting": "[5]", "result": "93 % of control and 101 % of control"}, {"measurement": "T/C", "setting": "[6]", "result": "102 % of control and 104 % of control"}, {"measurement": "T/C", "setting": "dose: 200.0 mg/kg/injection, schedule: Q01DX009 (ip), vehicle: saline with Tween-80", "result": "90 % of control"}]}
{"smiles": "C1CN1P1(N2CC2)=NP(N2CC2)(N2CC2)=NP(N2CC2)(N2CC2)=NP(N2CC2)(N2CC2)=N1", "values": [{"measurement": "T/C", "setting": "dose: 1.0 mg/kg/injection, schedule: Q01DX009 (ip), vehicle: saline", "result": "95 % of control and 98 % of control"}, {"measurement": "T/C", "setting": "dose: 1.0 mg/kg/injection, schedule: Q02DX009 (ip), vehicle: saline", "result": "91 % of control and 97 % of control"}, {"measurement": "T/C", "setting": "dose: 2.0 mg/kg/injection, schedule: Q01DX009 (ip), vehicle: saline", "result": "92 % of control and 96 % of control"}, {"measurement": "T/C", "setting": "dose: 2.0 mg/kg/injection, schedule: Q02DX009 (ip), vehicle: saline", "result": "91 % of control and 97 % of control"}, {"measurement": "T/C", "setting": "dose: 4.0 mg/kg/injection, schedule: Q01DX009 (ip), vehicle: saline", "result": "109 % of control and 95 % of control"}, {"measurement": "T/C", "setting": "dose: 4.0 mg/kg/injection, schedule: Q02DX009 (ip), vehicle: saline", "result": "91 % of control and 98 % of control"}, {"measurement": "T/C", "setting": "dose: 8.0 mg/kg/injection, schedule: Q01DX009 (ip), vehicle: saline", "result": "89 % of control and 107 % of control"}, {"measurement": "T/C", "setting": "dose: 8.0 mg/kg/injection, schedule: Q02DX009 (ip), vehicle: saline", "result": "90 % of control and 97 % of control"}, {"measurement": "T/C", "setting": "dose: 16.0 mg/kg/injection, schedule: Q01DX009 (ip), vehicle: saline", "result": "91 % of control and 100 % of control"}, {"measurement": "T/C", "setting": "dose: 16.0 mg/kg/injection, schedule: Q02DX009 (ip), vehicle: saline", "result": "112 % of control"}, {"measurement": "T/C", "setting": "dose: 32.0 mg/kg/injection, schedule: Q01DX009 (ip), vehicle: saline", "result": "109 % of control and 91 % of control"}, {"measurement": "T/C", "setting": "dose: 32.0 mg/kg/injection, schedule: Q02DX009 (ip), vehicle: saline", "result": "88 % of control and 103 % of control"}, {"measurement": "T/C", "setting": "dose: 64.0 mg/kg/injection, schedule: Q01DX009 (ip), vehicle: saline", "result": "109 % of control and 90 % of control"}, {"measurement": "T/C", "setting": "dose: 64.0 mg/kg/injection, schedule: Q02DX009 (ip), vehicle: saline", "result": "94 % of control and 100 % of control"}]}
{"smiles": "Nc1nc(=S)c2ncn(C3CC(O)C(CO)O3)c2[nH]1", "note": "(stereo not drawn)", "values": [{"measurement": "T/C", "setting": "[1]", "result": "101 % of control"}, {"measurement": "T/C", "setting": "[2]", "result": "96 % of control"}, {"measurement": "T/C", "setting": "[3]", "result": "104 % of control"}, {"measurement": "T/C", "setting": "[4]", "result": "104 % of control"}, {"measurement": "T/C", "setting": "dose: 200.0 mg/kg/injection, schedule: Q01DX009 (ip), vehicle: saline", "result": "103 % of control"}, {"measurement": "T/C", "setting": "dose: 400.0 mg/kg/injection, schedule: Q01DX009 (ip), vehicle: saline", "result": "103 % of control"}]}
